Measured values as given in ChEMBL document CHEMBL5465560, “Selectivity Literature for EUbOPEN Chemogenomic Library” (2024).
Blank lines part the entries; values can stand above or below the molecule they belong to.

Experiments:
[1] = biological target: Mitogen-activated protein kinase kinase kinase 10 (Homo sapiens) (UniProt Q02779); settings: at 10 µM
[2] = biological target: T1, Serine/threonine-protein kinase 17B (Homo sapiens) (UniProt O94768); assay: Selectivity interaction (Kinase panel (DSF assay)) EUB0001559a STK17B
T1 sequence (whole entry): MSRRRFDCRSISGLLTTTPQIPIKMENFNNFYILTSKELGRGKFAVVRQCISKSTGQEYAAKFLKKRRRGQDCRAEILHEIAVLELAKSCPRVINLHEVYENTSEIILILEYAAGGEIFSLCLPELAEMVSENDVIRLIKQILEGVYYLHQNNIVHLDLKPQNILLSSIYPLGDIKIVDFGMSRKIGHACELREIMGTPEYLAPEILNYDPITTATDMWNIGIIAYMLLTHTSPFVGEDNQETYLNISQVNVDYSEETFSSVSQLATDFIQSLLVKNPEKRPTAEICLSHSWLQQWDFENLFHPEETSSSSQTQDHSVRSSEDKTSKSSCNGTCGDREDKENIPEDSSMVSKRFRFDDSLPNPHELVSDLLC

[3] = biological target: Ribosomal protein S6 kinase alpha-1 (Homo sapiens, UniProt Q15418); assay: Selectivity interaction (Kinase panel (DSF assay)) EUB0001559a RPS6KA1
Sequence of Ribosomal protein S6 kinase alpha-1 (Q15418 whole entry): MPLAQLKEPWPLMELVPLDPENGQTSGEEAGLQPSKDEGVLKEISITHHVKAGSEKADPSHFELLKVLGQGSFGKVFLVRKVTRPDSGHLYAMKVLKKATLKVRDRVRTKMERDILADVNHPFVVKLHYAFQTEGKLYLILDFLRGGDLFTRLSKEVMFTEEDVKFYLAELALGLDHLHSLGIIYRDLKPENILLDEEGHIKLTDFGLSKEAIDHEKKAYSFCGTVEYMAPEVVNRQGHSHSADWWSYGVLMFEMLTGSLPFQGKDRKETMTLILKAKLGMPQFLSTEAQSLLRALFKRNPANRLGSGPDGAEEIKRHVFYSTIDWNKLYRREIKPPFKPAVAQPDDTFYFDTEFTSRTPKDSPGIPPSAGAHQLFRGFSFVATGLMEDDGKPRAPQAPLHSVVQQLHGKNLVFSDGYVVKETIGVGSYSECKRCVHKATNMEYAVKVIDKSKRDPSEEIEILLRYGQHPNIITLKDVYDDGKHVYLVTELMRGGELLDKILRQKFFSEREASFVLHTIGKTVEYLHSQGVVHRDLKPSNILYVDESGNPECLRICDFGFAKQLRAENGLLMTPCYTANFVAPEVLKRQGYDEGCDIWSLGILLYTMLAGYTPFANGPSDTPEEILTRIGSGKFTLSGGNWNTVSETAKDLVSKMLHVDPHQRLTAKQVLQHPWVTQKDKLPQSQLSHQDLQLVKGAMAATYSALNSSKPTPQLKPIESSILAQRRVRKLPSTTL

[4] = biological target: Calcium/calmodulin-dependent protein kinase type 1D (Homo sapiens) (UniProt Q8IU85); assay: Selectivity interaction (KinomeScan (DiscoverX)) EUB0000607a CAMK1D; settings: at 10 µM
Sequence of Calcium/calmodulin-dependent protein kinase type 1D (Homo sapiens) (Q8IU85 whole entry, looked up): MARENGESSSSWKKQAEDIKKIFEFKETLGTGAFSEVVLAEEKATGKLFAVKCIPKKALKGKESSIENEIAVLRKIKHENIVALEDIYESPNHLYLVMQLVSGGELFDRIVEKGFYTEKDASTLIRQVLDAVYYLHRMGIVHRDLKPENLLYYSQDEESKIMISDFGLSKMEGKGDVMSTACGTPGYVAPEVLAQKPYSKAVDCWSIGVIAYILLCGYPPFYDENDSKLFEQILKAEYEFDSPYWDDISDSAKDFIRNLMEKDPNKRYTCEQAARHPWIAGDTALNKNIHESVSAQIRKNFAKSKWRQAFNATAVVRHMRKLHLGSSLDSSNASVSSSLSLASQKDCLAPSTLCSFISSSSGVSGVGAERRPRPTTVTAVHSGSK

[5] = biological target: Fibroblast growth factor receptor 2 (Homo sapiens) (UniProt P21802); assay: Selectivity interaction (KinomeScan (DiscoverX)) EUB0000045b FGFR2
Sequence of Fibroblast growth factor receptor 2 (Homo sapiens) (P21802 22-821 limits assumed): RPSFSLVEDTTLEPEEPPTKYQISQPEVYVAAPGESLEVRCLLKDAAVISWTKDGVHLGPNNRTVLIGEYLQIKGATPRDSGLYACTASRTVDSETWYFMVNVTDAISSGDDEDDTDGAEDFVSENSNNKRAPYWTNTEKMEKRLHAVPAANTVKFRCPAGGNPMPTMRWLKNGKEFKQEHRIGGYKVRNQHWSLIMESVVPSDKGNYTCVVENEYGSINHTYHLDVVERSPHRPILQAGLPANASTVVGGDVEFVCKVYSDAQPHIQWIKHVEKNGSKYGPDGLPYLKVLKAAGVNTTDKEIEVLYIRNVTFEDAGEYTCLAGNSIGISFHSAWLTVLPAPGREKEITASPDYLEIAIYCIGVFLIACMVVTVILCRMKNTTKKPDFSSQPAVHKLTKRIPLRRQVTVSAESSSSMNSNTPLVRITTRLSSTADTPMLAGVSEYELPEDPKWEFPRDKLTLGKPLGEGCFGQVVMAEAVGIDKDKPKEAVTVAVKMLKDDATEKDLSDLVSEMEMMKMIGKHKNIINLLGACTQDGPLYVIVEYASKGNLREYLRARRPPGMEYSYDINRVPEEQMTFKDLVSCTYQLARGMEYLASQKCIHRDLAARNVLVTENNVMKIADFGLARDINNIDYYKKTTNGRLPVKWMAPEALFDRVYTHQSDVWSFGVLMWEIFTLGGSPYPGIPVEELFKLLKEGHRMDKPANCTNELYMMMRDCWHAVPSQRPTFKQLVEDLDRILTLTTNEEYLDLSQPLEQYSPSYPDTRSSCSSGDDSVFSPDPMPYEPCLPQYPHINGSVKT

[6] = biological target: T2, Serine/threonine-protein kinase LATS1 (Homo sapiens) (UniProt O95835); assay: Selectivity interaction (ActivX KiNativ screen (kinase selectivity in THP-1 cell lysates)) EUB0000639a LATS1; type: subcellular; settings: lysate, at 0.01 µM
T2 sequence (whole entry): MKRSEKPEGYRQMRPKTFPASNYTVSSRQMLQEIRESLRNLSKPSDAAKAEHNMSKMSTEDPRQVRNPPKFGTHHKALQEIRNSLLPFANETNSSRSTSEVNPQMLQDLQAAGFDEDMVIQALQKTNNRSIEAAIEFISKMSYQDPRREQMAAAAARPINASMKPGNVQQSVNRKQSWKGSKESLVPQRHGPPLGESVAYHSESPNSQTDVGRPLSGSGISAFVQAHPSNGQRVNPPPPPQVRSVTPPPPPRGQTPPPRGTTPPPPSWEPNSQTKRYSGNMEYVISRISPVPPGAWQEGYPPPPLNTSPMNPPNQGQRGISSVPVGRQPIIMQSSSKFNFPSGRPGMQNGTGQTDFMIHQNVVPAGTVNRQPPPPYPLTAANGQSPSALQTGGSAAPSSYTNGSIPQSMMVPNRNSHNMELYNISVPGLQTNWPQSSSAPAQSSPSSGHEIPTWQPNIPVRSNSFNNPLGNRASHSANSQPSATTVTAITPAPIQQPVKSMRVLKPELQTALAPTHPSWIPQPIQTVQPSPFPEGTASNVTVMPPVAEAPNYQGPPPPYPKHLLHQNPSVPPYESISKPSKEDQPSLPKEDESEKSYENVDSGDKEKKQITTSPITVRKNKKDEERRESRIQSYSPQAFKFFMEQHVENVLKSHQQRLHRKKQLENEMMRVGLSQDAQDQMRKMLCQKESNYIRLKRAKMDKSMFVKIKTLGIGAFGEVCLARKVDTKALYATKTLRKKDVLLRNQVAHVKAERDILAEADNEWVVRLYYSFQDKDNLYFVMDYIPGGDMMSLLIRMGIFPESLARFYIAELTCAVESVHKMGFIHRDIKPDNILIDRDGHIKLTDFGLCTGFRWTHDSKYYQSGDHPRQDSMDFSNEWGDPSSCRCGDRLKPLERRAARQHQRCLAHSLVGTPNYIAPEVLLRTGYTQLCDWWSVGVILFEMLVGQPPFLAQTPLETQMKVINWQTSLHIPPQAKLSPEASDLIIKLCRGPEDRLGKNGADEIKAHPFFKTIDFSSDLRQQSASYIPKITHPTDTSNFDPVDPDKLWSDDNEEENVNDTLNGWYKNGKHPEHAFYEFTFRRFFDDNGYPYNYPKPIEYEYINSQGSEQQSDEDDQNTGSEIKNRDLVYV

[7] = biological target: T3, MAP kinase-activated protein kinase 5 (Homo sapiens) (UniProt Q8IW41); assay: Selectivity interaction (KinomeScan (DiscoverX)) EUB0000666a MAPKAPK5; settings: at 10 µM
T3 sequence (whole entry): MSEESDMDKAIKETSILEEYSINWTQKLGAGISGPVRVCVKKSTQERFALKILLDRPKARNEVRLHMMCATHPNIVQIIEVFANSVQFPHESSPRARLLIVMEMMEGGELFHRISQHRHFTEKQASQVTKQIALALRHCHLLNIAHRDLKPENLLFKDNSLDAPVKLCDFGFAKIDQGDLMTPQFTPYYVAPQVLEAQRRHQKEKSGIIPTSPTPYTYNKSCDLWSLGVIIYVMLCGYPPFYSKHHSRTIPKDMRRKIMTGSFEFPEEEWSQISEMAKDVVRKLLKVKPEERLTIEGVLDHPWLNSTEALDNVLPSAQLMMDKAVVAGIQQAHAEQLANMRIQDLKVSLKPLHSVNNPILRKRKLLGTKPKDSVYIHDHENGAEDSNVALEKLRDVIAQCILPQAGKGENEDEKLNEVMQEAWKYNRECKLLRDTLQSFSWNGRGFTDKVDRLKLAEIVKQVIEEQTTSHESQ

[8] = biological target: Ribosomal protein S6 kinase alpha-4 (Homo sapiens) (UniProt O75676); assay: Selectivity interaction (KinomeScan (DiscoverX)) EUB0000666a RPS6KA4; settings: at 10 µM
Sequence of Ribosomal protein S6 kinase alpha-4 (Homo sapiens) (O75676 whole entry, looked up): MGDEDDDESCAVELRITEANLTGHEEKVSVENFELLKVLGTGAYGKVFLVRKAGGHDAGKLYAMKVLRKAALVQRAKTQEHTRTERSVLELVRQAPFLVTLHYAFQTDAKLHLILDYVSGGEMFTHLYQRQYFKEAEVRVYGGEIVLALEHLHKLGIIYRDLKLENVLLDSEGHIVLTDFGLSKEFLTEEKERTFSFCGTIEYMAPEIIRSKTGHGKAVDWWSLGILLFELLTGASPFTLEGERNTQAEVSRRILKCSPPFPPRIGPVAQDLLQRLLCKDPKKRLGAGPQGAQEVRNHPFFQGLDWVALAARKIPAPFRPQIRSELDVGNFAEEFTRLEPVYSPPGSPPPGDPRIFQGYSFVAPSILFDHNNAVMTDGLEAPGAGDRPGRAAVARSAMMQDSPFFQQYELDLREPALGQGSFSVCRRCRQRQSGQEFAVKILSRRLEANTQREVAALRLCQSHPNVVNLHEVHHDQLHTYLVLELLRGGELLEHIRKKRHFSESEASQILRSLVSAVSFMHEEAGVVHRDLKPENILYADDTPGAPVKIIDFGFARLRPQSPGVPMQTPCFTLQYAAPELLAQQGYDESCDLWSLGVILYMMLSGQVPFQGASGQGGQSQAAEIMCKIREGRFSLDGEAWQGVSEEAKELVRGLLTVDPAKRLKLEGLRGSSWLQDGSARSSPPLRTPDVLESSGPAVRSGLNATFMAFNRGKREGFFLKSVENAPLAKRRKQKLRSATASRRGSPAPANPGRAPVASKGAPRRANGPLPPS

[9] = biological target: Dual specificity protein kinase CLK2 (Homo sapiens, UniProt P49760); assay: Selectivity interaction (KinomeScan (DiscoverX)) EUB0001550a CLK2; settings: at 1 µM
Sequence of Dual specificity protein kinase CLK2 (P49760 whole entry, looked up): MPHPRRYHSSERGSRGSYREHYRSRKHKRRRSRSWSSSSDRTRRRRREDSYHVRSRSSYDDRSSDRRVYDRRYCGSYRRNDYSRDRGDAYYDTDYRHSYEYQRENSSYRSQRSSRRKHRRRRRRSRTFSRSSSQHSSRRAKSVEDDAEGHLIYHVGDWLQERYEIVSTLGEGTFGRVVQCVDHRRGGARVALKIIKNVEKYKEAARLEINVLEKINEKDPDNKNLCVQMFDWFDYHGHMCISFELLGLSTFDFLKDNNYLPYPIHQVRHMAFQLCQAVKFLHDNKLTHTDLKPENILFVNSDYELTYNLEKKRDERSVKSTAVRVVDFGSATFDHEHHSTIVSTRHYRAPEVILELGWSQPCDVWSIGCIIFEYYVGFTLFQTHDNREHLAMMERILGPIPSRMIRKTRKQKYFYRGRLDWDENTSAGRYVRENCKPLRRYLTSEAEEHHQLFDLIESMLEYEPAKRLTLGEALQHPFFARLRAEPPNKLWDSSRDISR

Sequence of Mitogen-activated protein kinase kinase kinase 10 (Homo sapiens) (Q02779 whole entry, looked up): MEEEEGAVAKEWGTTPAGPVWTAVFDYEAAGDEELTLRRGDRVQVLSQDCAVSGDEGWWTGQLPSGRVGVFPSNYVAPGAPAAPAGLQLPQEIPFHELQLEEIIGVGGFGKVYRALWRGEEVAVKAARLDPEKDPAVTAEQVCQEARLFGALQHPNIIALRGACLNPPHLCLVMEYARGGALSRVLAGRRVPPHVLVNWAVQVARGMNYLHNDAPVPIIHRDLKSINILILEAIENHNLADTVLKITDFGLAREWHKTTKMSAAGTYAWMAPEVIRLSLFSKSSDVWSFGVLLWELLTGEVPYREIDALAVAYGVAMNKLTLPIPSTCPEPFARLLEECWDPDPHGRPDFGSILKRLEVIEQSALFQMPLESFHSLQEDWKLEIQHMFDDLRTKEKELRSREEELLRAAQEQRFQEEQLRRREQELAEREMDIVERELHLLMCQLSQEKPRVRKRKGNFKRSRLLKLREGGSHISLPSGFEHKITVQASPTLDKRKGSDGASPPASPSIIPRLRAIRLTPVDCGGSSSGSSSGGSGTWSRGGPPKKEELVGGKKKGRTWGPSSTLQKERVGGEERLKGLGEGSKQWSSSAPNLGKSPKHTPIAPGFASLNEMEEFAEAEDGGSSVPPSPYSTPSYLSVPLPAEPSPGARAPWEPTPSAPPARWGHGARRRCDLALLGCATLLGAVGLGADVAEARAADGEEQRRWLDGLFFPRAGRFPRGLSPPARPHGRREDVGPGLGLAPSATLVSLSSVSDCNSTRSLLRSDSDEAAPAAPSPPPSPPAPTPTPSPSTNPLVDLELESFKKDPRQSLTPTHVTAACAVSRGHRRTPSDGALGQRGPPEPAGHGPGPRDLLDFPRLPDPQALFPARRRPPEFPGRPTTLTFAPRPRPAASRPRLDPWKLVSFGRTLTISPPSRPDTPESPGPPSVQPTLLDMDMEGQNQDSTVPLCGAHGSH

Structure (SMILES): CCN(CC)CCCCNc1ncc2cc(-c3cc(OC)cc(OC)c3)c(NC(=O)NC(C)(C)C)nc2n1
- % of control [1]: 100%

Structure (SMILES): CNC(=O)Nc1ccc(-c2nc(N3CC4CCC(C3)O4)c3cnn(C4CCC5(CC4)OCCO5)c3n2)cc1
- % of control [4]: 95%

Structure (SMILES): C=CC(=O)Nc1cc(-n2c(=O)ccc3cnc4ccc(-c5ccc(NS(C)(=O)=O)cc5)cc4c32)ccc1C
- % of control ([5]; at 1 µM): 96%
- % of control ([5]; at 10 µM): 92%

Structure (SMILES): CC[C@@H]1[C@H](F)C(=O)N[C@@H]1COc1nccc2cc(C(N)=O)c(OC)cc12 [ZIMLOVISERTIB]
- % of inhibition [6]: 15.8%

Structure (SMILES): O=C(NOC[C@H](O)CO)c1ccc(F)c(F)c1Nc1ccc(I)cc1F
- % of control [7]: 100%
- % of control [8]: 100%

Further lines, results first:

- dTM [2]: 1 K
- dTM [3]: 0.5 K
Structure (SMILES): CN(C(=O)c1cnn2cccnc12)c1cc2c(cc1N1CCOCC1)C(=O)N(C[C@@H](F)C(C)(C)O)C2

- % of control [9]: 20%
Structure (SMILES): CN(C)CC#Cc1ccc2[nH]c3c(c2c1)-c1nc(N)ncc1CCC3
